Legend:
Format in all cases: in vivo
[1] = Body weight, mouse critical limb ischemia study
Excerpt: In total 60 male Balb/c mice, 9 weeks old, having an average body weight of 24.7 g at study initiation (day 0) were obtained from Harlan Laboratories, Israel. The minimal and maximal weight recorded in each group was within the range of ±20% of the group mean. Animals were handled according to the National Institute of Health (NIH) and the Association for Assessment and Accreditation of Laboratory Animal Care (AAALAC). Animals were housed in polysufone (PSU) cages (5/cage) measuring […], with stainless steel top grill having facilities for pelleted food and drinking water in glass-clear polycarbonate bottle; bedding: steam sterilized clean paddy husk (Harlan, Sani-chip, Cat #: 106S8216) was used and bedding material was changed along with the cage at least twice a week. Animals were fed ad libitum a commercial rodent diet (Teklad Certified Global 18% Protein Diet cat #: 106S8216). Animals had free access to autoclaved and acidified drinking water (pH between 2.5 and 3.5) obtained from the municipality supply. Animals were housed under standard laboratory conditions, air conditioned and filtered (HEPA F6/6) with adequate fresh air supply (minimum 15 air changes/hour). Animals were kept in a climate controlled environment. Temperatures range was 20-24° C. and RH range was 30-70% with 12 hours light and 12 hours dark cycle.
Body weight was measured on study day −1 prior to surgery and once a week thereafter. […] From day 14 onwards a gradual increase in weight was observed. Accordingly, between day 0 and day 35 the mean increase in body weight ranged between 0.4 g to 1.7 g, see Table 2.

[2] = tested on: tMCAO rat-stroke model; experiment: Cerebral blood flow assessment (Flow-R Laser Doppler), tMCAO rat; conditions: day 29
Experimental: (§1) Transient middle cerebral artery occlusion was performed according to the method previously described in Stroke 29, 2162-2170 (1998). The right common carotid artery (CCA) was exposed through a midline neck incision and carefully dissected free from surrounding nerves and fascia—from its bifurcation to the base of the skull. The occipital artery branches of the external carotid artery (ECA) were then isolated, and these branches were dissected and coagulated. The ECA was dissected further distally and coagulated along with the terminal lingual and maxillary artery branches, which was then divided. The internal carotid artery (ICA) was isolated and carefully separated from the adjacent vagus nerve, and the pterygopalatine artery was ligated close to its origin with a 5-0 nylon suture (SMI, Belgium). Next a 4-0 silk suture was tied loosely around the mobilized ECA stump, and a 4 cm length of 4-0 monofilament nylon suture (the tip of the suture was blunted by using a flame, and the suture was coated with polylysine, prior to insertion) was inserted through the proximal ECA into the ICA and thence into the circle of Willis, effectively occluding the MCA. […]
Evaluation of the blood flow on the brain cortex and vessel constriction was carried out using Flow-R Laser Doppler system, in which intracranial blood flow and vessels diameter (constriction/dilatation) was monitored. […]

[3] = tested on: tMCAO rat-stroke model; experiment: Stepping test, tMCAO rat; conditions: groups 2M and 3M; from day 7 to day 28
Experimental: as §1, with “Belgium).” for “Belgium). Next a 4-0 silk suture was tied loosely around the mobilized ECA stump, and a 4 cm length of 4-0 monofilament nylon suture (the tip of the suture was blunted by using a flame, and the suture was coated with polylysine, prior to insertion) was inserted through the proximal ECA into the ICA and thence into the circle of Willis, effectively occluding the MCA.”
Animals were tested for forelimb akinesia using the stepping test. […] The number of adjusting steps were counted while the animal was moved sideways along the table surface (85 cm in approximately five seconds), in the forehand and backhand direction for both forelimbs.

[4] = tested on: Rat Hind-Limb Ischemia Model; experiment: Ischemic severity (necrosis grades), rat hind-limb ischemia; conditions: all groups incl. vehicle; Day 7 up to Day 28
Experimental: The femoral artery and vein were ligated twice with 4-0 silk thread and transected between the ligatures. The wound was closed with 3-0 silk thread and the rats were allowed to recover.
Animals in group 4M and 5M were injected s.c. once on Day 8, see Table 12.

[5] = Mortality and clinical signs, tMCAO rat study; conditions: for Rats that died within 10 hours after dosing: vehicle group 1M: 6
Experimental: Started two hours after occlusion (immediately after reperfusion), animals in groups 2M and 3M (dextran sulfate at doses of 30 mg/kg three times a week or 15 mg/kg daily) and animals in group 1M (vehicle control) were injected subcutaneously, see Table 10.
Eighteen rats died during the study. One rat died just after reperfusion before dosing, and seventeen rats within 10 hours after dosing (6 in group 1M, 6 in group 2M and 5 in group 3M).

[6] = Adverse effects / general health, mouse hind-limb ischemia study; conditions: 10 or 30 mg/kg s.c., up to day 35
Experimental: The collective data of the study confirmed the therapeutic efficacy of dextran sulfate given s.c. for the treatment of occlusive peripheral arterial disease in the Balb/c mouse animal model.
No adverse effect on general health was recorded in any of the groups. […] The findings reflect changes in blood vessel morphology, i.e. capillaries density increase, and blood vessels angiogenesis.

[7] = tested on: Rat Hind-Limb Ischemia Model; experiment: Immunohistochemistry, SMA and Factor 8 capillaries density, rat hind-limb ischemia; conditions: groups 2M-5M vs control 1M; Day 28
Experimental: Four sections of muscle samples were taken from the same areas of six animals from groups 1M, 2M, 3M, 4M, 5M and stained for blood vessels using antibodies against SMA and Factor 8. The area of blood vessels was evaluated by using image analysis. Density was expressed as the mean number of capillaries per field of view. Total vessels represented all blood vessels in the measured area. The number of SMA and factor 8 positive capillaries in right ischemic limb was larger in all dextran sulfate treated groups 2M-5M compared to the control group 1M on Day 28 of the study, see FIG. 23. SMA and factor 8 positive staining are considered as an indication for small capillaries formation in rats, and thus the obtained results supported blood flow improvement observed in the animal groups treated with dextran sulfate. Statistical analysis performed using two-way ANOVA followed by Bonferroni multiple comparisons, */** indicate p<0.0510.01.

[8] = tested on: tMCAO rat-stroke model; experiment: Body swing test, tMCAO rat; conditions: all treated rats; day 7 up to day 28
Experimental: as §1, with “Belgium).” for “Belgium). Next a 4-0 silk suture was tied loosely around the mobilized ECA stump, and a 4 cm length of 4-0 monofilament nylon suture (the tip of the suture was blunted by using a flame, and the suture was coated with polylysine, prior to insertion) was inserted through the proximal ECA into the ICA and thence into the circle of Willis, effectively occluding the MCA.”
The rat was held approximately one inch from the base of its tail. […] A swing was recorded whenever the rat moves its head out of the vertical axis to either side. Before attempting another swing, the rat was returned to the vertical position for the next swing to be counted. Twenty total swings were counted. […] Body swing scores were expressed as a percentage of rightward over total swings. […]

Substance: Dextran sulfate
- Mean weight change from day 0 to day 35 ([1]; group 2M, 10 mg/kg s.c. 3 times/week from day 8): 1.0 g
- Mean weight change from day 0 to day 35 ([1]; group 3M, 30 mg/kg s.c. 3 times/week from day 8): 1.7 g
- Mean weight change from day 0 to day 35 ([1]; group 4M, 30 mg/kg s.c. 1 time/week from day 8): 1.0 g
- Mean body weight, differences between the groups ([1]; throughout the study, two-way ANOVA, Bonferroni): no statistically significant differences
- Vessels diameter ratio versus control [2]: increased
- Cerebral blood perfusion rate versus control vehicle-treated group ([2]; groups 2M and 3M, damaged hemisphere): Statistically significant improvement
- Stepping test, functional improvement compared to control [3]: improvement reached statistical significance
- Toe necrosis or foot amputation [4]: no toe necrosis or foot amputation was found
- Adverse clinical signs ([5]; all animal groups): No adverse clinical signs unrelated to the model
- Rats that died within 10 hours after dosing ([5]; group 2M, 30 mg/kg s.c. 3 times a week): 6 rats
- Rats that died within 10 hours after dosing ([5]; group 3M, 15 mg/kg s.c. daily): 5 rats
- Adverse effects in the treated animals [6]: did not cause any adverse effects
- Number of SMA and factor 8 positive capillaries in right ischemic limb [7]: larger
- Body swing test compared to vehicle control [8]: statistically significant improvement

Source: patent publication US10925890B2, “Use of dextran sulfate” (TX MEDIC AB, priority 2014, dated 2021)
